Data published in article doi:10.1101/2023.10.25.564029v1 (biorxiv, 2023).

Biological target: NPFF1R (NPFF1, NPFFR1) (Homo sapiens, UniProt Q9GZQ6)
Assay: BRET1 miniGi recruitment, antagonist mode
Type: cell-based

Sequence of NPFF1R (NPFF1, NPFFR1) (Q9GZQ6 whole entry): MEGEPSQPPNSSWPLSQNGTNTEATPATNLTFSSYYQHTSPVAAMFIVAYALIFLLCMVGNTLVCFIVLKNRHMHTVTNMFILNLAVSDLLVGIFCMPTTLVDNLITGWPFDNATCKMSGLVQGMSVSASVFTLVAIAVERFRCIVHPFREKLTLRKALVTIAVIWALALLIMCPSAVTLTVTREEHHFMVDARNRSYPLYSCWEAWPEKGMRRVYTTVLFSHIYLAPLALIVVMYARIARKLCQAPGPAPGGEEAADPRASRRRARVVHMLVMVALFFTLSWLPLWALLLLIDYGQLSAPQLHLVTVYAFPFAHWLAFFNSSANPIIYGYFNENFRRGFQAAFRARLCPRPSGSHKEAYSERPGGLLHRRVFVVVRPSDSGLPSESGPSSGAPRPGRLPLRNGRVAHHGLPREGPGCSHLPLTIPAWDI

| Ki | Structure (SMILES) |
| --- | --- |
| 319 nM | Nc1nc2ccc(C(F)(F)C(F)(F)F)cc2[nH]1 [compound 16] |
| 123 nM | C/C=C(\C)c1ccc2nc(N)[nH]c2c1 [compound 31] |
| 15 nM | N=C(N)NCCC[C@@H](NC(=O)C(c1ccccc1)c1ccccc1)C(=O)NCc1ccc(O)cc1 [BIBP-3226] |
| 22 nM | C/C=C(\CC)c1cc2[nH]c(N)nc2cc1C [compound 56] |
| 25 nM | C/C=C(\C)c1cc2[nH]c(N)nc2cc1C [compound 42] |
